Test results: patent publication US20220370636A1, “NICOTINAMIDE ADENINE DINUCLEOTIDE ACTIVATOR AND USE THEREOF” (University of South Florida, priority 2021, published 2022)

How the values were obtained:
[1] = In vitro drug release by membrane dialysis; conditions: PBS pH 7.4, 37° C.
Description: In vitro Drug Release. Membrane dialysis method was used to investigate the drug release profile of P7C3 from the NPs. A 0.5 mL sample volume of aptamer conjugated, and non-conjugated P7C3 NPs was filled in dialysis cassettes (MWCO 14 KDa) and placed in 50 mL of PBS (pH 7.4) release medium with stirring at 100 rpm and temperature of 37° C. At predetermined time intervals, 1 mL sample volume of release media was removed, and the release study was continued for 7 days.

Nampt = target: T1, Nampt (Mus musculus, UniProt Q99KQ4); experiment: Gastrocnemius muscle Nampt enzymatic activity in db/db mice; format: in vivo; conditions: 4 weeks, vs db-Veh
T1 construct: from tissue; host or cells: whole heart homogenate of db/db mice
Excerpt: Nampt enzymatic activity.

db/db mice [2] = experiment: Pancreatic β cells immunostaining and Gomori aldehyde fuchsin staining in db/db mice; format: in vivo; conditions: 4 weeks
Description: Immunostaining. Immunostaining of the pancreas was performed for the measurement of insulin secreting β cells area, as previously described. Briefly, the frozen pancreatic tissues were fixed into tissue freezing media (TFM). Pancreas were cut into 10 μm thick sections and kept at −80° C. For immunostaining, the slides were first air dried and washed with phosphate buffer saline (PBS). The sections were then fixed in 4% paraformaldehyde for 30 min and blocked with SuperBlock™ T20 (TBS) blocking buffer (Thermo scientific, MA, USA) for 30 min, at room temperature (RT). Slides were then incubated with insulin primary antibody (sc-9168, Santa Cruz, TX, USA) diluted in blocking buffer (1:200), overnight at 4° C. Slides were then washed in PBS and incubated with Alexa Fluor®488 secondary antibody (Abcam, Mass., USA) diluted in blocking buffer for 1 h at RT. Following washes, the slides were then mounted with ProLong® Gold antifade mountant containing DAPI (Molecular Probe, OR, USA). Nuclei were labelled by DAPI. The images obtained with confocal multiphoton laser scanning microscope (Olympus FV1000 MPE, Olympus Inc., USA) were quantified by using ImageJ software (NIH, USA). The cross-sectional areas of pancreas and β cells were determined from multiple sections (n=3 mice per group), separated by at least 50 μm from each section. Pancreatic β cell area was calculated by using the following formula: islet β cell area (%)=(area stained by insulin anti-body/total islets area)×100.
Gomori aldehyde fuchsin staining. The Gomori aldehyde fuchsin staining of the pancreatic β cells was performed as per previously published protocol. Briefly, the frozen pancreas was TFM embedded and cut into 6 μm thick transverse serial cryosections using Microm cryostat machine. The slides were air dried at 60° C. and dewaxed using xylene and then hydrated through decreasing concentrations of ethyl alcohol. The slides were then rinsed in cold tap water followed by a single rinse in 50% ethanol and immersed in aldehyde fuchsin (Electron Microscopy Services, PA, USA) for 1 h. The excess stain was removed by rinsing in 70% ethanol and tap water. The slides were then counter-stained with Light Green (American Master Tech Scientific, CA, USA) through immersion for 60 s and dehydrated with increasing concentration of ethanol, and cleared with xylene. The sections were then mounted with disterene phthalate xylene (DPX) mountant (Sigma-Aldrich, MO, USA). Images were obtained at ×20 magnification with the Olympus IX73 inverted microscope using CellSens Standard software (Olympus Soft Imaging Solution, USA) and quantified with ImageJ software (NIH, USA).

db/db mice [3] = experiment: Grip strength and voluntary running wheel in db/db mice; format: in vivo; conditions: 4 weeks, vs db-Veh
Description: Grip strength and voluntary running wheel. The fore-limb and hind-limb grip strengths were measured with the use of Chatillon force measurement DFE II grip strength meter (Ametek, Columbus Instruments, OH, USA). The average of five measurements per mice is represented as KGF/kg body weight for both the fore-limb and hind-limb grip strengths measured. The overnight voluntary running wheel experiments were carried out with the Columbus Instruments O297, the CI Multi-Device Interface (Columbus Instruments, OH, USA) per manufacturer's recommendations.

db/db mice [4] = experiment: Serum HDL and LDL/VLDL in db/db mice; format: in vivo; conditions: vs db-Veh
Excerpt: Fasting blood glucose and serum lipid.

db/db mice [5] = experiment: Ex vivo myofibre contractility and force-frequency relationship of extensor digitorum longus muscle; format: in vivo
Excerpt: Ex vivo myofibre contractility and force-frequency relationship. Animals were euthanized in compliance with University of South Florida IACUC guidelines. The extensor digitorum longus (EDL) muscles of each animal were tied with surgical silk at the proximal and distal tendons and dissected free. Muscles were immediately transferred to a customized vertical organ bath system (Aurora Scientific Inc., Canada) with the suture on the distal tendon clamped in place and that on the proximal tendon tied to a force transducer such that the muscles were positioned between two platinum wirestimulating electrodes. […] Muscles were equilibrated for 10-15 min after which, the optimal muscle length (l0) for each muscle was calculated by adjusting the length until a maximal force response to a single twitch was attained. Following determination of l0, the muscles were subjected to stimulation trains (500 ms duration) of frequencies ranging from 1-125 Hz, 1 per minute to determine the force-frequency relationship (FFR). Stimulation was delivered with a 58800 dual pulse digital stimulator (Grass Products, West Warwick, R.I., USA), and all pulses were 1 ms in duration. The peak forces of each contraction at the different stimulation frequencies were used to plot the FFR. […]

db/db mice [6] = experiment: LC-MS/MS lipidomics of gastrocnemius muscle in db/db mice; format: in vivo
Description: Lipidomics. The lipidomic profiling of GAS muscle was performed using a liquid chromatography-tandem mass spectrometry (LC-MS/MS) method as described previously. Briefly, the GAS muscle samples were collected, and flash frozen in liquid nitrogen. Around 50-100 mg of the muscle tissue was homogenized using a bead-beating method, then the obtained supernatant was further cleaned and concentrated by solid phase extraction. The extracted LMs samples were dried under vacuum and stored at […] for future LC-MS/MS analysis. The dried extracts were reconstituted with 50 μL of methanol, and 10 μL was injected into LC-MS/MS to observe lipid profiles in GAS muscles. The LC-MS/MS system components were from Shimadzu Scientific Instruments Inc. (Columbia, Md., USA). All analyses and data processing were completed with the use of Shimadzu Lab Solutions V5.91 software (Shimadzu Scientific, Tokyo, Japan).

T1 sequence (Q99KQ4 whole entry): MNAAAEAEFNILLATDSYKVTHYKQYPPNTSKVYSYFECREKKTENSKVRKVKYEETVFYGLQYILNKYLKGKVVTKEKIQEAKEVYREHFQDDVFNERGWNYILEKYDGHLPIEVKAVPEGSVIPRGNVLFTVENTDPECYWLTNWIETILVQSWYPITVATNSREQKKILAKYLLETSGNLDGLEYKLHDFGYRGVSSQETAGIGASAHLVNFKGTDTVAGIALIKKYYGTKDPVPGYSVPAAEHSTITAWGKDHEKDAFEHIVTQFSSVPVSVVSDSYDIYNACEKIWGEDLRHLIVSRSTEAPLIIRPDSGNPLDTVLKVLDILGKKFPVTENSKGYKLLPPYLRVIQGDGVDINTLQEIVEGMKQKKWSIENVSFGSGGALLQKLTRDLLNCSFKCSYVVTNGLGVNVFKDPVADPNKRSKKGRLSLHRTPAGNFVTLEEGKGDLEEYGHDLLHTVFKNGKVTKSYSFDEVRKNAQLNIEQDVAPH

OC(CNc1ccccc1)Cn1c2ccc(Br)cc2c2cc(Br)ccc21 (centres unmarked) [P7C3, 3,6-Dibromo-a-[(phenylamino)methyl]-9H-carbazole-9-ethanol]
cumulative drug release at day 1 (24 h) [1]: 100% | Nampt activity in gastrocnemius muscle (Nampt): significant increase | number of islet of Langerhans per tissue section (db/db mice [2]; vs db-Veh): significant increase | number of β cells per islets of Langerhans (db/db mice [2]; vs db-Veh): increased | number of β cells per tissue section (db/db mice [2]; vs db-Veh): significant increase | insulin positive β cells area per islet of Langerhans area (db/db mice [2]; vs vehicle): significant increase | fore-limb grip strength (db/db mice [3]): significant increase | hind-limb grip strength (db/db mice [3]): significant increase | voluntary running wheel distance covered (db/db mice [3]): significant in-crease | HDL lipoproteins level (db/db mice [4]): significant increase | LDL/VLDL lipoproteins level (db/db mice [4]): significant decrease | reduced EDL force at higher frequencies seen in db-Veh (db/db mice [5]; db/db, 4 weeks): mitigated | absolute myofibre force frequency area under curve (db/db mice [5]; ex vivo EDL, vs db-Veh): significant increase | anti-inflammatory LMs (DHA, HDoHE derivatives, EPA, 5-HEPE) (db/db mice [6]): lowered | pro-inflammatory LMs (arachidonic acid, 11-HETE, 15-HETE) (db/db mice [6]): significantly attenuated | 2-arachidonoyl glycerol (2-AG) levels (db/db mice [6]; vs db-Veh): significantly decreased | anandamide (AEA) levels (db/db mice [6]; vs db-Veh and WT): significantly higher
